According to US20260285924A1, “PEPTIDE THERAPEUTICS” (priority 2023, published 2026):

Tests used:
[1] = test system: A-to-I RNA editing reporter (ADAR) in A375; experiment: A-to-I PepTile (REPTILE) screen: A-to-I editing of dsRNA hairpin reporter by NGS; assay type: cell-based, human; settings: for % A-to-I editing (IFNα): IFNα 6000 U/ml for 48 hours; for % A-to-I editing (Basal): no treatment
Text: (§1) FIGS. 12A-12D. A-to-I PepTile screen. (A) Composition of A-to-I PepTile linrary screen, and schematic description of the lentiviral expression vector. (B) Experimental workflow. A375 cells were transduced at low MOI, and then treated or not with IFNα for 48 hrs. RNA was extracted and Peptide_ADARreporter RNA species were amplified and sequenced by NGS. (C) Dot plot of A-to-I PepTile library effect on A-to-I editing with or without IFNα treatment. Red line is the mean A-to-I editing of all the 8088 peptides (>100 read counts) no treatment: 25.75% IFNα: 37.6%. (D) Dot plot of A-to-I PepTile library fitness effect upon IFNα for 48 hrs.
FIGS. 17A-17F show A-to-I RNA Editing PiTile (REPTILE) screen in A375. (A) A-to-I RNA Editing PiTile (REPTILE) library design consist of fragmentation of all known ADAR1, ADAR2 interactors and all human double stranded RNA-binding protein into 40 amino acid long peptide. This library was then cloned into a lentivirus vector that also encode a DNA-encoded RNA loop reporter (A-to-I Rep) that is edited by ADAR proteins in cells at the RNA level. When the construct is expressed, the RNA loop gets edited on a single Adenosine, while the 40-mer peptide get expressed at the protein level. Then we can measure the impact of the peptide expression on the editing rate of the RNA loop reporter by sequencing (NGS and Sanger). (B) Experimental workflow of REPTILE screen in A375 cell line. Cells were transduced with the REPTILE library, and then treated for 48 hours with IFNα. Following the treatment, RNA was harvested, converted into cDNA and amplicon library containing peptide Identity (barcode) linked to the RNA loop reporter were prepared for NGS. (C) Result of the A375 REPTILE screen in the no treatment condition. Each dot represents a unique peptide that is associated with an A-to-I editing rate that was measured on the RNA loop. (D) Result of the A375 REPTILE screen in the IFNα condition. Each dot represents a unique peptide that is associated with an A-to-I editing rate that was measured on the RNA loop. Red line represent the A-to-I editing mean, Dash blue line represent 2 times the standard deviation of the % A-to-I editing across all the datasets. This cutoff was used to defined peptides hits that modulate RNA A-to-I editing. (E) Peptide A-to-I Inhibitor Hits intersection between no treatment (% A-to-I editing<15%) and IFNα (% A-to-I editing<27%) conditions. (F) Peptide A-to-I Enhancers Hits intersection between no treatment (% A-to-I editing>36%) and IFNα (% A-to-I editing>47%) conditions.
Provided herein is a screening methodology to measure the effect of small peptide on A-to-I RNA editing in situ and screen thousands of peptides in a single experiment. First, a library of peptides with the potential of impairing A-to-I editing was designed and built. ADAR enzymes edit RNA only on double-stranded RNA structures and via ADAR's double stranded RNA-Binding Domain (dsRBD). […] The A-to-I PepTile library is composed of 19 Human proteins having dsRBD and 34 known protein-protein interactors of ADAR1/2. All these proteins were tiled into 40-mer peptides every 4 amino acids (FIG. 12A). To measure A-to-I editing, a biosensor consisting of a 71 bp dsRNA hairpin structure that gets A-to-I edited at a rate of 25% in A375 melanoma cells, and ~37% upon IFNα treatment was used. This A-to-I editing reporter is fused with DNA sequence encoding for a peptide from the A-to-I PepTile library. The A-to-I PepTile plasmid pool (10304 elements) was used to produced lentiviruses and transduced A375 cells at a low multiplicity of infection (MOI) (FIG. 12B). A part of the infected cells was treated with IFNα at 6000 U/ml for 48 hours, and then bulk RNA of the basal and treated condition was harvested. RNA was then retrotranscribed into cDNA and sequenced by Next-Generation Sequencing (NGS). […]

A375 cells = experiment: A-to-I PepTile screen: fitness effect upon IFNα (PepTile abundance untreated vs treated); assay type: cell-based, human
Text: as §1
Provided herein is a screening methodology to measure the effect of small peptide on A-to-I RNA editing in situ and screen thousands of peptides in a single experiment. First, a library of peptides with the potential of impairing A-to-I editing was designed and built. ADAR enzymes edit RNA only on double-stranded RNA structures and via ADAR's double stranded RNA-Binding Domain (dsRBD). […] The A-to-I PepTile library is composed of 19 Human proteins having dsRBD and 34 known protein-protein interactors of ADAR1/2. All these proteins were tiled into 40-mer peptides every 4 amino acids (FIG. 12A). To measure A-to-I editing, a biosensor consisting of a 71 bp dsRNA hairpin structure that gets A-to-I edited at a rate of 25% in A375 melanoma cells, and ~37% upon IFNα treatment was used. This A-to-I editing reporter is fused with DNA sequence encoding for a peptide from the A-to-I PepTile library. The A-to-I PepTile plasmid pool (10304 elements) was used to produced lentiviruses and transduced A375 cells at a low multiplicity of infection (MOI) (FIG. 12B). A part of the infected cells was treated with IFNα at 6000 U/ml for 48 hours, and then bulk RNA of the basal and treated condition was harvested. RNA was then retrotranscribed into cDNA and sequenced by Next-Generation Sequencing (NGS). With the sequencing data, the A-to-I editing percentage of the RNA reporter for each PepTile is calculated since both elements are encoded on the same transcript. Moreover, with this screen one can also measure the abundance of the PepTiles between the untreated and treated conditions and determine Fitness score associated to every PepTile. To ensure a robust and more accurate A-to-I editing % estimation a cut-off of 100 read counts was set for each PepTile. […] SEQ ID NOs: 2125-2147 are A-to-I peptide inhibitors and SEQ ID NOs: 2148-2210 are A-to-I activators. In addition, 117 PepTiles were identified that either synergize (SEQ ID NOs: 2211-2243) or protect (SEQ ID NOs: 2244-2327) to IFNα-induced cell death (FIG. 12D and Table 5). These PepTiles are potential new therapeutic agents that can modulate the Interferon pathway. They may be beneficial in treating inflammatory conditions and may also enhance the effectiveness of cancer immunotherapy through synergistic effects.

[2] = IFNα 6000 U/ml for 48 hours vs untreated

Sequence	% A-to-I editing (IFNα) [1] [%]	% A-to-I editing (Basal) [1] [%]	Fitness Score IFNα (A375 cells; [2])	Fitness Score IFNα (A375 cells; A375, PepTile abundance upon IFNα treatment, negative = synthetic lethal, positive = protector)
MKVPAVPVQWGNCGDTGTRSAGPLRRNYNFIAAVVEKVAPS [HTRA4_36]	25.56	12.55	0.18	–
MSILARLDMQRGVHGRLMDNSTSVREAAVELLGRFVLCRPQ [NIPBL_452]	50.76	38.35	2.31	2.31
MGRRSSGGGRYRNRSPSDSDMEDYSPPPSLSEVARKMKKKE [NIPBL_285]	47.59	42.29	1.59	–
MLPERLEVNGRESEEENLNKSEISQVFEIALKRNLPVNFEV [STAU1_42]	18.40	11.00	0.46	–
MKKNIAAERKEAKQEKEEADRYQRLKDEVVRAQVQLQLFKL [SMC1A_48]	26.12	11.19	1.61	–
MSESGNSARSSGISSQNSSTSDGDRSVSSQSSSSVSSQVTT [CDKN2AIP_47]	26.81	14.82	-1.31	–
MVEKAVSSAAGPLGPGDAVRRVLECVATGTLLTDGPGLQDP [ZFR2_205]	54.50	45.00	0.12	–
MQVEQMEIPPVELPPEEPPNICQLIPELELLPEKEKEKEKE [RAD21_124]	48.70	39.15	1.20	–
MGELSSADEKRYRALKRTAERELLMNADVICCTCVGAGDPR [UPF1_147]	24.68	13.30	-0.63	–
MGLSPSIDTLDHIRALDRLQEVPHEGPMCDLLWSDPDDRGG [PPP2CB_43]	62.33	46.04	-0.38	–
MLRYFDEKELELMLCGMQEIDMSDWQKSTIYRHYTKNSKQI [WWP2_185]	25.97	13.42	-0.08	–
MDTLDPELFVECTECGRKMHQICVLHHEIIWPAGFVCDGCL [EP300_310]	26.86	14.29	-1.83	–
MIQDPAQAEAYTIYWLVAALAPLVAAPPRPSQGRLAGREWS [UBE2I_32]	47.26	44.43	-0.02	–
MNMMLFEVVKMGKSAMQSVVDDWIESYKHDRDIALLDLINF [STAG2_21]	58.92	43.58	0.65	–
MSELNQKRPQYIKAKENTSHKIKKLEAAKKSLQNAQKHYKK [SMC1A_73]	23.54	11.31	-0.76	–
